The structures appear in SMILES notation.

These results are taken from patent US6121431A, “Nucleoside derivatives” (Medivir AB, priority 1990, dated 2000).

The test system of the first test is human immuno deficiency virus. The experiment in a line: Effect of compounds of the formula I on HIV in H9 cells (HIV multiplication in cell culture, HIV antigen containing cells). As to conditions: Human immunodeficiency virus 1, HIV (HTLV-IIIB), 6-7 days, 37° C., read-out: Concentration for 50% inhibition (IC50) of human immuno deficiency virus multiplication in cell culture. Format: cell-based. How it is done:
Test I. Effect of compounds of the formula I on HIV in H9 cells
HIV Infection of H9 Cells
H9 cells, 10^5 cells per well on a 24 well plate, suspended in 2 ml RPMI-medium containing 10% fetal calf serum […] penicillin, 10 mg/mil streptomycin sulfate and 2 mg/ml polybrene are exposed to HIV (HTLV-IIIB) and different concentrations of the test compounds. The plates are incubated at 37° C. in 5% CO2 for 6-7 days. The contents in each well is then homogenized with a pipette and transferred to a centrifuge tube. After centrifugation for 10 min at 1500 rpm the supernatant is removed and the cell pellet is analyzed by fixing in methanol on glass plates. Human HIV positive serum diluted 1:80 or 1:160 is added and incubated for 30 min at 37° C. The plate is then washed with phosphate-buffered saline (PBS) containing Ca^2+ and Mg^2+. Sheep antihuman conjugate (FITC) is added and after a new incubation the plate is again washed with PBS. Contrast staining is done with Evans blue and after drying the frequency of HIV antigen containing cells is determined in a microscope.
On to `Nc1ccn([C@H]2C[C@H](CO)[C@@H](CO)O2)c(=O)n1` [1-2',3'-Dideoxy-3'-C-(hydroxymethyl)-β-D-erythropentofuranosyl]-cytosine], for which the IC50 came out at 0.01 µM. Same read-out and setting: to `Cc1cn([C@H]2C[C@H](CO)[C@@H](CO)O2)c(=O)[nH]c1=O` [1-[2',3'-Dideoxy-3'-C-(hydroxymethyl)-β-D-erythro-pentofuranosyl]-thymine] belongs 5 µM; to `Nc1ccn([C@@H]2C[C@H](CO)[C@@H](CO)O2)c(=O)n1` [1-[2',3'-Dideoxy-3'-C-(hydroxymethyl)-α-D-erythro-pentafuranosyl]cytosine], 5 µM; to `Cc1cn([C@@H]2C[C@H](CO)[C@@H](CO)O2)c(=O)[nH]c1=O` [1-(2',3'-Dideoxy-3'-C-(hydroxymethyl)-α-D-erythro-pentafuranosyl]thymine], 10 µM.

Consider `Nc1ncnc2c1ncn2[C@@H]1C[C@H](CO)[C@@H](CO)O1` [9-[2',3'-Dideoxy-3'-C-(hydroxymethyl)-α-D-erythropentofuranosyl]-adenosine], for which the IC50 was 10 µM.

The subject of another test is H9 cells. The experiment in a line: Cellular toxicity on H9 cells (inhibition of cell multiplication). The test is classed as cell-based. As to conditions: Homo sapiens, 1 mM, 48 h. How it is done:
Test II. Cellular toxicity
H9 cells, 2×10^7 cells per plate, are incubated in RPMI-1640 medium containing 10% fetal calf serum, 70 mg/l penicillin, 100 mg/l streptomycin and 10 mM hepes, in absence or presence of test compounds. The number of cells per plate is determined after 48 h. Cells incubated in the absence of test compounds then underwent two cell division cycles.
F5000 cells, which are human embryo cells, 1×10^5 cells per plate, are incubated in Eagle's minimal essential medium, supplemented with Earle's sals, non-essential amino acids, 10% fetal calf serum, 10 mM hepes, 70 mg/l penicillin and 100 mg/l streptomycin, in absence or presence of test compounds. The number of cells per plate is determined after 48 h. Cells incubated in the absence of test compounds underwent one cell division cycle.
As for `Nc1ccn([C@H]2C[C@H](CO)[C@@H](CO)O2)c(=O)n1` [1-2',3'-Dideoxy-3'-C-(hydroxymethyl)-β-D-erythropentofuranosyl]-cytosine], testing at 1000 µM gave an inhibition of 50%.
